Experimental data taken from patent US20240132492A1, “PYRIDOPYRIMIDINE-BASED COMPOUND AND APPLICATION THEREOF” (JINAN UNIVERSITY, priority 2021, published 2024).

Key:
Type in all cases: cell-based
BXPC-3 = assay: CCK-8 tumor cell proliferation, BXPC-3; details: Homo sapiens, BXPC-3 cells, 72 hours
Protocol: (§1) Tumor cells (see Table 2 to Table 5) were inoculated in 96-well plates in complete culture medium (2000-3000 cells/well). After overnight incubation, the compounds with different concentrations (0.000508 μM-10 μM) were used to treat the cells separately for 72 hours. CCK-8 (Cell Counting Kit 8, Dojindo Laboratories, Kumamoto, Japan) experiment was used to evaluate cell proliferation. GraphPad Prism 5.0 software (La Jolla, CA) was used to calculate the half-maximal inhibitory concentration (IC50) values by fitting the concentration response curve. Each IC50 value was represented as an average value±SD.

PANC-1 = assay: CCK-8 tumor cell proliferation, PANC-1; details: Homo sapiens, PANC-1 cells, 72 hours
Protocol: as §1

A549 = assay: CCK-8 tumor cell proliferation, A549; details: Homo sapiens, A549 cells, 72 hours
Protocol: as §1

BT-549 = assay: CCK-8 tumor cell proliferation, BT-549; details: Homo sapiens, BT-549 cells, 72 hours
Protocol: as §1

HCC1937 = assay: CCK-8 tumor cell proliferation, HCC1937; details: Homo sapiens, HCC1937 cells, 72 hours
Protocol: as §1

MDA-MB-453 = assay: CCK-8 tumor cell proliferation, MDA-MB-453; details: Homo sapiens, MDA-MB-453 cells, 72 hours
Protocol: as §1

HCT116 = assay: CCK-8 tumor cell proliferation, HCT116; details: Homo sapiens, HCT-116, HCT116 cells, 72 hours
Protocol: as §1

MIAPACA-2 = assay: CCK-8 tumor cell proliferation, MIAPACA-2; details: Homo sapiens, MIA PaCa-2, MIAPACA-2 cells, 72 hours
Protocol: as §1

K562 = assay: CCK-8 tumor cell proliferation, K562; details: Homo sapiens, K562 cells, 72 hours
Protocol: as §1

Huh7 = assay: CCK-8 tumor cell proliferation, Huh7; details: Homo sapiens, Huh-7, Huh7 cells, 72 hours
Protocol: as §1

MDA-MB-231 = assay: CCK-8 tumor cell proliferation, MDA-MB-231; details: Homo sapiens, MDA-MB-231 cells, 72 hours
Protocol: as §1

Bel-7402 = assay: CCK-8 tumor cell proliferation, Bel-7402; details: Homo sapiens, Bel-7402 cells, 72 hours
Protocol: as §1

Row | IC50 (BXPC-3) | IC50 (PANC-1) | IC50 (A549) | IC50 (BT-549) | IC50 (HCC1937) | IC50 (MDA-MB-453) | IC50 (HCT116) | IC50 (MIAPACA-2) | IC50 (K562) | IC50 (Huh7) | IC50 (MDA-MB-231) | IC50 (Bel-7402) | SMILES
1 | 0.333 µM | 0.125 µM | 0.629 µM | 0.644 µM | > 10 µM | > 10 µM | 0.0553 µM | 0.0513 µM | 0.263 µM | > 10 µM | 0.145 µM | > 3 µM | COc1cc(N2CCN(CCNC(=O)CC34CC5CC(CC(C5)C3)C4)CC2)ccc1Nc1ncc2c(C)cc(=O)n(-c3cccc(NC(=O)C4CC4)c3)c2n1 [ZX-HYT-51, N-(3-(2-((4-(4-(2-(2-((3R, 5R, 7R)-adamantan-1-yl)acetylamino)ethyl)piperazin-1-yl)-2-methoxyphenyl))amino)-5-methyl-7-oxypyridino [2,3-d]pyrimidin-8 (7H)-yl) phenyl) cyclopropane formamide]
2 | 0.303 µM | 0.126 µM | 0.833 µM | 0.478 µM | 0.002 to 0.005 µM | 2.5 µM | 0.104 µM | 0.0721 µM | 0.25 µM | 1.35 µM | 1.99 µM | 0.568 µM | COc1cc(N2CCN(CCCCNC(=O)CC34CC5CC(CC(C5)C3)C4)CC2)ccc1Nc1ncc2c(C)cc(=O)n(-c3cccc(NC(=O)C4CC4)c3)c2n1 [ZX-HYT-52, N-(3-(2-((4-(4-(4-(2-((3R, 5R, 7R)-adamantan-1-yl)acetylamino)butyl)piperazin-1-yl)-2-methoxyphenyl))amino)-5-methyl-7-oxypyridino [2,3-d]pyrimidin-8 (7H)-yl) phenyl) cyclopropane formamide]
3 | 0.447 µM | 0.179 µM | 1.17 µM | > 10 µM | > 10 µM | > 10 µM | 0.0729 µM | 0.0511 µM | 0.234 µM | 0.335 µM | 0.104 µM | > 10 µM | COc1cc(N2CCN(C(=O)C34CC5CC(CC(C5)C3)C4)CC2)ccc1Nc1ncc2c(C)cc(=O)n(-c3cccc(NC(=O)C4CC4)c3)c2n1 [ZX-HYT-65, N-(3-(2-((4-(4-((3R, 5R, 7R)-adamantan-1-carbonyl)piperazin-1-yl)-2-methoxyphenyl)amino)-5-methyl-7-oxypyridino [2,3-d]pyrimidin-8 (7H)-yl)phenyl) cyclopropane formamide]
